# Measurements: patent publication US20250339432A1, “QUINAZOLINONE COMPOUND AS BRAF INHIBITOR FOR THE TREATMENT OF ADVANCED SOLID CANCER OR METASTASES” (Hoffmann-La Roche Inc., priority 2022, published 2025)
# How the values were obtained:
# [1] = in vivo
# Experimental: (§1) In a Pilot PK Cohort prior to the dose-escalation in Part 1a (monotherapy), the PK of Compound Ia was explored after a single, oral dose of 25 mg in 2 participants to address the PK uncertainty.
# (§2) Blood samples to evaluate concentrations of Compound Ia and cobimetinib (and its metabolite[s], if appropriate) will be collected. The date and time of each sample collection will be recorded. Compound Ia and cobimetinib levels will be analyzed by using validated LC-MS/MS assays. […] Dedicated PK samples will be collected for the Pilot PK Cohort and the Food Cohort at pre-defined timepoints.
# (§3) PK parameters for Compound Ia administered alone and in combination with cobimetinib will be derived from the plasma concentrations and will be listed and summarized using descriptive statistics (such as mean, standard deviation, coefficient of variation, median, minimum, and maximum). The PK parameters will include but are not limited to area under the curve (AUC), maximum concentration (Cmax), time of maximum concentration observed (Tmax) and, apparent oral clearance (CL/F), volume of distribution at steady-state (Vss/F), and terminal half-life (t½). Estimation of PK parameters may be performed using standard non-compartmental methods and/or population PK modeling. If data allow, other methods may be used for data analysis, e.g., PK and PD data may be used to develop a population PK/PD model. Individual and mean plasma Compound Ia concentration versus time data will be tabulated and plotted by dose levels. […] The linearity of PK (AUC and Cmax) will be investigated. To assess the FE on the PK of Compound Ia, PK parameters (such as AUC, Cmax, Tmax and t1/2) will be analyzed following oral administration of Compound Ia while either fed (high-fat meal) or fasted for a minimum of 6 participants. Estimation of PK parameters may be performed using standard non-compartmental methods and/or population PK modeling. Furthermore, Compound Ia CSF concentrations (where applicable) might be presented by listings and descriptive summary statistics (such as mean, standard deviation, coefficient of variation, median, minimum, and maximum). If data allow, other methods may be used for data analysis, e.g., PK and PD data may be used to develop a population PK/PD model.
# [2] = Solubility / biopharmaceutics classification; assay type: physicochemical; settings: for solubility across the physiological pH range: behaves like a weak acid
# [3] = human, in vivo
# Text: Participants in the Pilot PK Cohort were enrolled and treated in a staggered manner (at least 3 days between the first and second participant).
# The dosing regimen will then change to a twice-daily (BID) or three-times-daily (TID) administration, depending on new emerging PK data.
# The number of patients with leptomeningeal involvement of their tumours is capped at 33% in each cohort. To avoid exposing participants to undue risk of toxicity, the maximum allowable dose increment recommended by the mCRM EWOC (modified continual reassessment method escalation with overdose control) design will be 100% (i.e., a 2-fold increase). […] The mCRM-EWOC will be adapted to the new dosing regimen.
# Safety assessments will consist of monitoring and recording AEs, including serious AEs (SAEs) and non-SAEs of special interest (NSAESI); measurement of protocol-specified safety laboratory assessments; measurement of protocol-specified vital signs, ECGs; and other protocol-specified tests that are deemed critical to the safety evaluation of the study.
# clinical = settings: human, in vivo, po, 25 mg
# Experimental: as §1, §2, §3
# [4] = Food Cohort: food effect on PK (high-fat meal vs fasted); assay type: in vivo, human; settings: fed cohort vs fasted, preliminary PK data, FIG. 3
# Text: Part 1—Food Cohort: The food effect (FE) on the PK of Compound Ia will be evaluated in Part 1a (Compound Ia monotherapy) or in Part 1b (Compound Ia in combination with cobimetinib) at the MTD and/or RP2D, or at dose levels close to the RP2D and/or MTD of Compound Ia with or without cobimetinib. For exploring the effect of food intake, participants will receive Compound Ia after a high-fat meal (Group 1) or following a 10-hour fast (Group 2) using a parallel design. For this pilot FE evaluation, a minimum of 6 evaluable participants will be enrolled.
# Meals and Dietary Restrictions: Generally, for participants receiving Compound Ia, no dietary restrictions are foreseen. A preliminary assessment of the FE (food effect) on the PK of Compound Ia will be done in Part 1 to inform about potential dietary requirements for the dose expansion (Part 2) in case a FE is observed. For participants receiving cobimetinib, the use of grapefruit juice, a potent CYP3A4 enzyme inhibitor, is prohibited during the study and for 30 days after the last dose of study treatment. For Participants in Food Cohort in the Food Cohort of Part 1, the effect of food on the systemic exposure of Compound Ia will be explored close to the MTD and/or at RP2D or relevant dose levels for a minimum of 6 participants. […] The food intake during the high-fat meal plus calories and fat content will be recorded.
# [5] = Non-clinical safety benchmark dose in rats
compound,measurement,setting,value
"Cn1cnc2ccc(Oc3c(F)ccc(NS(=O)(=O)N4CC[C@@H](F)C4)c3C#N)cc2c1=O [Compound Ia, (3R)—N-[2-cyano-4-fluoro-3-(3-methyl-4-oxo-quinazolin-6-yl)oxy-phenyl]-3-fluoro-pyrrolidine-1-sulfonamide]",safety margin based on unbound AUC0-∞ to the safety benchmark dose of 200 mg/kg/day in rat,[1],22 fold
same,safety margin based on unbound Cmax to the safety benchmark dose of 200 mg/kg/day in rat,[1],4 fold
same,safety margin based on preliminary unbound AUC0-∞ to the safety benchmark dose of 200 mg/kg/day in rats,[1]; rat,174 fold
same,safety margin based on preliminary unbound Cmax to the safety benchmark dose of 200 mg/kg/day in rats,[1]; rat,32 fold
same,biopharmaceutics classification system class,[2],class 2
same,solubility,[2],low and pH dependent solubility
same,solubility across the physiological pH range,[2],purely soluble at low pH with increasing solubility at neutral and alkaline pH
same,solubility across the physiological pH range,[2]; listed as compound of formula (I),poorly soluble at low pH with increasing solubility at neutral and alkaline pH
same,drug related Grade 3 adverse events,[3],less than 25%
same,half-life,clinical,2 to 4 h
same,effect of food on AUCINF (AUC0-∞),[4],did not significantly alter
same,effect of food on Cmax,[4],lower Cmax
same,NOAEL,"[5]; rat, in vivo",200 mg/kg/day
same,safety benchmark dose (toxic dose in 10% of animals),[5]; rats,200 mg/kg/day
